pIC50: −log10 of the molar value. Numbered stars: 1 amine (or outer) side, 2 acyl side, 3 side chain; on linkers, the order of the positions; unused ones are H or OH. Bridge positions count the residues as written; N and C are the ends. Square brackets hold non-standard residues; d marks the D form. Ends that are not written are not given here. Peptide text beside a SMILES is read from it. N(6-aminohexyl)Gly = O=C(CN(CCCCCCN[*:3])[*:1])[*:2]; X1 = CC(C)[C@H](NC(=O)CCCCC(=O)[*:1])C(=O)[*:2]

Usually half-life stands for the time needed for the level to fall by half in the phase considered. A word on the pIC50: it is −log10 of the IC50, conventionally taken in molar units.

The test system of series [1] is nuclear import of SV40-NLS-BSA (biotinylated BSA-NLS). Description: Quantitative ELISA-based nuclear import assay, inhibition of NLS-BSA (SV40-NLS-BSA) uptake in permeabilized Colo-205 cells. The series is classed as cell-based. The arrangement: key to Nuclear uptake of SV40-BSA: +: most of the cells in the field (more than 70-80%) did show nuclear uptake (presence of fluorescent dye within the nuclei); −: most of the cells in the field (more than 70-80%) did show nuclear uptake (their cytoplasm, and not the nuclei, were fluorescently labeled). Particulars: for Nuclear uptake of SV40-BSA: in the presence of the free peptide, ELISA-based assay; for Nuclear entry (%) of SV40-NLS-BSA: WGA 0.6 mg/ml or Tat-NLS peptide 1 mg/ml preincubated 30 minutes, entry with cytosolic factors = 100%. The protocol:
(§1) Nuclear import was quantitatively determined essentially as described before (Melchior, et al. (1993) J. Cell. Biol. 123 (6). 1649-1659), except that a suspension of Colo-205 cells was used instead of a suspension of HeLa cells and 500 nM biotinylated BSA-NLS were used as a transport substrate. The immunomodule strips were coated with rabbit anti-BSA serum instead of using the IgG fraction. The results given are an average of triplicate determination whose standard deviation never exceeded ±20%.
Nuclear uptake was determined by the ELISA-based assay, except where indicated. IC50 values were determined by using peptides and transport substrates in molar ratios between 500:1 and 0.005:1 respectively. Cysteine residues in all the peptides are not part of the original sequence and were added in order to conjugate them to BSA.
Inhibition of nuclear uptake was estimated by addition of the above listed peptides to a nuclear transport system using SV40-NLS-BSA as a transport substrate.
(§2) Nuclear transport using SV40-NLS-BSA and Tat-NLS-BSA as transport substrates was performed employing the in-vitro ELISA system.
(In an ELISA, binding on a coated surface is turned into a signal by an enzyme label.)

In the next series the test system is trypsin. As to the kind of experiment: Stability to proteolytic cleavage by trypsin. The format is in vitro ADME. Particulars: trypsin solution; room temperature, TEA buffer pH 7.8, HPLC peak area; read-out: half life (t½) of digestion by trypsin (converted). On the procedure: Method: A mixture containing 0.05 ml of trypsin solution (8% w/v in HCl 0.001M), 0.5 ml TEA buffer pH=7.8 (Geiger, R.; Fritz, H. In Methods of enzymatic analysis; H. U. Bergmeyer, et al. Eds.; Weinheim: Verlag-chemie: 1984; pp 119-129) and 0.2 ml of peptide 22 (BCvir) solution in water (initial concentration of 1.25 mg/ml) was injected to HPLC (C3 column, gradient of 5-60% acetonitrile:TDW containing 0.1% TFA, 35 minutes) immediately after addition of the peptide (t=0). The mixture was incubated at room temperature and samples were injected every 70 min. […] The peak area of the peptide at each time interval was compared to the peak area of the peptide in t=0, as a measure of the relative peptide concentration.

For series [2], the system named is nuclear import of VprN/VprC-BSA conjugate in permeabilized cells. As to the kind of experiment: Nuclear import of Vpr peptide-BSA conjugates in permeabilized cells. The format is cell-based. An excerpt: Viral protein r (Vpr), an HIV-1 auxiliary protein which mediates nuclear import of the viral preintegration complex (PIC), contains two regions, N- and C-terminal, which have been proposed to function as a nuclear localization signal (NLS). We have synthesized peptides corresponding to both regions (designated as VprN and VprC), conjugated them to bovine serum albumin (BSA), and tested their ability to mediate nuclear import in permeabilized cells.

The subject of series [3] is nuclear import of Tat-NLS-BSA. As to the kind of experiment: In-vitro ELISA nuclear transport with Tat-NLS-BSA as transport substrate. The format is cell-based, human. Conditions: WGA 0.6 mg/ml or Tat-NLS peptide 1 mg/ml preincubated 30 minutes; entry with cytosolic factors = 100%. The protocol:
as §1
The entry of the conjugates into nuclei of permeabilized colo cells was estimated as described above. ATP was depleted, WGA (0.6 mg/ml) and Tat-NLS peptide (1 mg/ml) were preincubated for 30 minutes at room temperature with the permeabilized cells before adding the BSA conjugates.
as §2

The test system of series [4] is translocation of FL-NLS-BSA into nuclei of digitonin-permeabilized HeLa cells. As to the kind of experiment: Nuclear import estimated by fluorescence microscopy. The format is cell-based. Conditions: in the presence of the free peptide; based on fluorescent microscopy observations (footnote 3). Also noted: key: +: most of the cells in the field (more than 70-80%) did show nuclear uptake (presence of fluorescent dye within the nuclei); −: most of the cells in the field (more than 70-80%) did show nuclear uptake (their cytoplasm, and not the nuclei, were fluorescently labeled). An excerpt:
HeLa cells were cultivated on 10 mm coverslips to subconfluent density and then permeabilized with digitonin as described before (Broder, et al. ibid). Linear peptides bearing the NLS signal of the SV40 large T-antigen were covalently attached to fluorescently labeled (with FITC) BSA molecules (Goldfarb, et al. (1986) Nature 322, 641-644) and translocation of the resulting fluorescently labeled-NLS-BSA molecules (FL-NLS-BSA) into nuclei of digitonin-permeabilized HeLa cells was followed by fluorescent microscopy observations, as described (Broder, et al. ibid).

A further series concerns Hut 78 cells. Particulars: 0.1, 1, 10 and 100 μg/ml; 1, 2, 4 and 7 days post seeding.
The mark [5] stands for this setting: SV40-NLS-BSA substrate, peptide:substrate molar ratios between 500:1 and 0.005:1.
Where [6] appears, read: purified peptides, inhibition of nuclear import of NLS-BSA.

Protocol for Hut 78 cells: Method: Hut 78 cells (0.5×10^6/ml) were cultured without or with 0.1, 1, 10 and 100 μg/ml of BCvir. The number of living cells was determined by staining with trypan blue 1, 2, 4 and 7 days post seeding,.

With “C^88EWRKKRYSTOV^98 [Vif 88-98 K91L] (CEWRLKRYSTQV; not fully specified; printed as C^88EWRKKRYSTOV^98 [Vif 88-98 K91L])”, the “Nuclear uptake of SV40-BSA” value in series [1] was “+”.
`NCCCC[C@H](NC(=O)CN1CCCCCCNC(=O)CNC(=O)CCCCC(=O)N[C@@H](CCCCN)C(=O)N[C@@H](CCCCN)C(=O)N[C@@H](CCCCN)C1=O)C(N)=O` [peptide 19.4]: the half-life with trypsin was 9 h.
For “C^88EWRKKRYSTOV^98 [Vif 88-98] (CEWRKKRYSTQV; not fully specified; printed as C^88EWRKKRYSTOV^98 [Vif 88-98]; UniProt P69723 88-98, looked up, fragment)”, the pIC50 in series [1] (setting [5]) is 4.21. For the same compound, the “Nuclear uptake of SV40-BSA” value in series [1] is given as “−”.
PKKKRKVC [SV40 large T-antigen NLS]: the pIC50 in series [1] (setting [5]) was 7.70; in series [1] (setting [6]), 9.00. Also, the “Nuclear uptake of SV40-BSA” value in series [1] is “−”. Moreover, the “inhibition of nuclear import of the VprN conjugate” value in series [2] is “not inhibited”.
For the compound “^88EWRKKRYS^95 (Human Immunodeficiency Virus (HIV-1)) [Vif 88-95]”, the “Nuclear uptake of SV40-BSA” value in series [1] is listed as “−”.
For “C^48GRKKRRQRRRAHQN^61 (N-terminal cysteine; UniProt P04608 48-61, looked up, fragment) [Tat NLS]”, the pIC50 in series [1] (setting [5]) is 3.83. For the same compound, in series [1], the “Nuclear entry (%) of SV40-NLS-BSA” value turned out to be 52% and the “Nuclear uptake of SV40-BSA” value was “−”. In addition, the “Nuclear entry (%) of Tat-NLS-BSA” value in series [3] is recorded as 15.4%.
^41RHHYESPHPRISSEV^55 [Vif 41-55]: in series [4], the “Nuclear uptake of SV40-BSA” value is recorded as “+”.
Same read-out and setting: the result for ^30YVSGKARGWFYRHHY^44 [Vif 30-44] reads “+”; that for ^51ISSEVHIPLGDARLV^65 [Vif 51-65], “+”.
As to “CVKRKKKPG (Human Immunodeficiency Virus (HIV-1)) [SV40 reverse]”, the “Nuclear uptake of SV40-BSA” value in series [1] is “+”.
In the case of C^7KRSMGGWSAIRERMRR^22 [Nef NLS], in series [1] (setting [5]), the pIC50 was 4.96. Also, the “Nuclear uptake of SV40-BSA” value in series [1] is “−”.
“^78DWHLGQGV^85 (Human Immunodeficiency Virus (HIV-1)) [Vif 78-85]”: in series [4], the “Nuclear uptake of SV40-BSA” value is “+”.
Turning to `CC(C)C[C@H](NC(=O)[C@H](CCCCN)NC(=O)CN1CCCCCCNC(=O)[C@H](C(C)C)NC(=O)CCCCC(=O)N[C@@H](CCCCN)C(=O)N[C@@H](CCCCN)C(=O)N[C@@H](CCCCN)C1=O)C(N)=O` [BCvir] (KKK[N(6-aminohexyl)Gly]KL-NH2; linker N-4 via X1), the “effect on growth rate of uninfected cells” value with Hut 78 cells is recorded as “did not affect the growth rate”. Further, the half-life in the series with trypsin was 7 h.
As to GKKKYKLKHC [HIV-MA NLS], the pIC50 in series [1] (setting [6]) was 4.92.
For the compound “C^35RQARRNRRRRWRERQRQ^51 (N-terminal cysteine; UniProt P04618 35-51, looked up, fragment) [Rev NLS]”, the pIC50 in series [1] (setting [5]) is 3.46. Besides, the “Nuclear uptake of SV40-BSA” value in series [1] was “−”.
For “^85VSIEWRKK^92 (UniProt P69723 85-92, looked up, fragment) [Vif 85-92]” the same measures were 3.60 and “−”.
With wheat germ agglutinin [WGA], in series [1], the “Nuclear entry (%) of SV40-NLS-BSA” value is 49.8%. Besides, the “inhibition of nuclear import of the VprN conjugate” value in series [2] is “inhibited”. For the same compound, the “Nuclear entry (%) of Tat-NLS-BSA” value in series [3] came to 53.6%.
With CGPKNKRKV [SV40 mutant], the “Nuclear uptake of SV40-BSA” value in series [1] is on record as “+”.
